Results on 16 compounds are retold here after patent US12157746B2, “Tetrahydro-1H-pyrazino[2,1-a]isoindolylquinoline compounds for the treatment of autoimmune disease” (F. HOFFMANN-LA ROCHE AG, priority 2018, dated 2024).

Each structure is given as a SMILES string. Some results are limits rather than exact numbers.

This assay deals with T1, human TLR8 (Homo sapiens, UniProt Q9NR97).
T1 sequence (Q9NR97 27-1041): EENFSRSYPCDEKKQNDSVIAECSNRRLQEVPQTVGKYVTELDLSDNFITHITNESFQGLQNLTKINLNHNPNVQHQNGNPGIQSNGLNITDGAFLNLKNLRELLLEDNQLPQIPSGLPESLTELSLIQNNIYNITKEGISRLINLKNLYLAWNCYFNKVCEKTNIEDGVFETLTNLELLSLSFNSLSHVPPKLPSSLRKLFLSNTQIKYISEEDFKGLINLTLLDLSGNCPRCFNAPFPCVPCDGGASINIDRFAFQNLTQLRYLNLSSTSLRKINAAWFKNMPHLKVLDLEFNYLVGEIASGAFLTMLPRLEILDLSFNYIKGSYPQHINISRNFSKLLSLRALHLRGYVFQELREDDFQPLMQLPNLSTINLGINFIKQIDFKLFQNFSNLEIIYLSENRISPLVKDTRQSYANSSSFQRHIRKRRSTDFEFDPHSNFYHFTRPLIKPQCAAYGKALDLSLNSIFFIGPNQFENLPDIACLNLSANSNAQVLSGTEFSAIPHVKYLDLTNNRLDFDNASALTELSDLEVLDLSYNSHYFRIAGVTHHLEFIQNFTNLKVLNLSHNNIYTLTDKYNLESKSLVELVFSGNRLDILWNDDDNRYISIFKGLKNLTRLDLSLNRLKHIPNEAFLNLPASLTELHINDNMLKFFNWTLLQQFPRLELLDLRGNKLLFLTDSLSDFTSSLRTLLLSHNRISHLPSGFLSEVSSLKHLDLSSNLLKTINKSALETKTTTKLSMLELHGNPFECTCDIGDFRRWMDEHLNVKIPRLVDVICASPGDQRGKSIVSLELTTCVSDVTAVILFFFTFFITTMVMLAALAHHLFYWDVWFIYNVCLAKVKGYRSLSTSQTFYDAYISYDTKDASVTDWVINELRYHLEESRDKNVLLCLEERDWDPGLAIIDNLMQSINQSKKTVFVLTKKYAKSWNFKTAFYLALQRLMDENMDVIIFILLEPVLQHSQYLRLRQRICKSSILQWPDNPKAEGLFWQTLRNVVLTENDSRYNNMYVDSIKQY
The assay can be described thus: HEK293-Blue-hTLR-8 cells assay. It is filed as cell-based. The settings on record: HEK293-Blue-hTLR8 cells, R848 stimulation, 20 hrs, SEAP reporter; read-out: HEK/hTLR8 IC50. The text has this: HEK293-Blue-hTLR-8 Cells Assay:
A stable HEK293-Blue-hTLR-8 cell line was purchased from InvivoGen (Cat. #: hkb-htlr8, San Diego, California, USA). These cells were originally designed for studying the stimulation of human TLR8 by monitoring the activation of NF-κB. A SEAP (secreted embryonic alkaline phosphatase) reporter gene was placed under the control of the IFN-β minimal promoter fused to five NF-κB and AP-1-binding sites. The SEAP was induced by activating NF-κB and AP-1 via stimulating HEK-Blue hTLR8 cells with TLR8 ligands. Therefore the reporter expression was declined by TLR8 antagonist under the stimulation of a ligand, such as R848, for incubation of 20 hrs. The cell culture supernatant SEAP reporter activity was determined using QUANTI-Blue™kit (Cat. #: rep-qb1, Invivogen, San Diego, Ca, USA) at a wavelength of 640 nm, a detection medium that turns purple or blue in the presence of alkaline phosphatase.
HEK293-Blue-hTLR8 cells were incubated at a density of 250,000-450,000 cells/mL in a volume of 170 μL in a 96-well plate in Dulbecco's Modified Eagle's medium (DMEM) containing 4.5 g/L glucose, 50 U/mL penicillin, […], […], 2 mM L-glutamine, 10% (v/v) heat-inactivated fetal bovine serum with addition of 20 μL test compound 1n a serial dilution in the presence of final DMSO at 1% and 10 μL of 60 uM R848 in above DMEM, perform incubation under 37° C. in a CO2 incubator for 20 hrs. Then 20 μL of the supernatant from each well was incubated with 180 μL Quanti-blue substrate solution at 37° C. for 2 hrs and the absorbance was read at 620-655 nm using a spectrophotometer. The signaling pathway that TLR8 activation leads to downstream NF-κB activation has been widely accepted, and therefore similar reporter assay was modified for evaluating TLR8 antagonist.

As to `C[C@@H]1CN(c2ccc(C#N)c3ncccc23)C[C@@H]2c3ccc(N4CCNC[C@@H]4CO)cc3CN12` [Example 10, 5-[(4R,10bS)-8-[(2R)-2-(hydroxymethyl)piperazin-1-yl]-4-methyl-3,4,6,10b-tetrahydro-1H-pyrazino[2,1-a]isoindol-2-yl]quinoline-8-carbonitrile], the IC50 was < 3.2 nM. Under `[2H]c1ccc2c(N3C[C@@H](C)N4Cc5cc(N[C@H]6CNC[C@H]6F)ccc5[C@H]4C3)ccc(C#N)c2n1` [Example 91, 5-[(4R,10bS)-8-[[(3S,4R)-4-fluoropyrrolidin-3-yl]amino]-4-methyl-3,4,6,10b-tetrahydro-1H-pyrazino[2,1-a]isoindol-2-yl]-2-deuterio-quinoline-8-carbonitrile] stands 0.6 nM; under `C[C@@H]1CN(c2ccc(C#N)c3ncccc23)C[C@@H]2c3ccc(C4CNC4)cc3CN12` [Example 29, 5-[(4R,10bS)-8-(azetidin-3-yl)-4-methyl-3,4,6,10b-tetrahydro-1H-pyrazino[2,1-a]isoindol-2-yl]quinoline-8-carbonitrile], < 3.2 nM. The figure for `CO[C@@H]1CN(c2ccc3c(c2)CN2[C@H](C)CN(c4ccc(C#N)n5ncc(F)c45)C[C@H]32)C[C@H]1N` [Example 113, 4-[(4R,10bS)-8-[(3R,4R)-3-amino-4-methoxy-pyrrolidin-1-yl]-4-methyl-3,4,6,10b-tetrahydro-1H-pyrazino[2,1-a]isoindol-2-yl]-3-fluoro-pyrazolo[1,5-a]pyridine-7-carbonitrile] is 2 nM; for `C[C@@H]1CN(c2ccc(C#N)c3ncccc23)C[C@@H]2c3ccc(N[C@H]4CNC[C@@H]4F)cc3CN12` [Example 31, 5-[(4R,10bS)-8-[[(3S,4S)-4-fluoropyrrolidin-3-yl]amino]-4-methyl-3,4,6,10b-tetrahydro-1H-pyrazino[2,1-a]isoindol-2-yl]quinoline-8-carbonitrile] it is < 3.2 nM; for `C[C@@H]1CN(c2ccc(C#N)n3nccc23)C[C@@H]2c3ccc(N4CCOC[C@H](N)C4)cc3CN12` [Example 101, 4-[(4R,10bS)-8-[(6R)-6-amino-1,4-oxazepan-4-yl]-4-methyl-3,4,6,10b-tetrahydro-1H-pyrazino[2,1-a]isoindol-2-yl]pyrazolo[1,5-a]pyridine-7-carbonitrile] it is 5.2 nM. The figure for `C[C@@H]1CN(c2ccc(C#N)n3nccc23)C[C@@H]2c3ccc(N4C[C@H](N)[C@@](C)(O)C4)cc3CN12` [Example 109, 4-[(4R,10bS)-8-[(3S,4S)-4-amino-3-hydroxy-3-methyl-pyrrolidin-1-yl]-4-methyl-3,4,6,10b-tetrahydro-1H-pyrazino[2,1-a]isoindol-2-yl]pyrazolo[1,5-a]pyridine-7-carbonitrile] is 6.7 nM; for `CO[C@H]1CCN(c2ccc3c(c2)CN2[C@H](C)CN(c4ccc(C#N)n5nccc45)C[C@H]32)C[C@H]1N` [Example 106, 4-[(4R,10bS)-8-[(3R,4S)-3-amino-4-methoxy-1-piperidyl]-4-methyl-3,4,6,10b-tetrahydro-1H-pyrazino[2,1-a]isoindol-2-yl]pyrazolo[1,5-a]pyridine-7-carbonitrile] it is 2.9 nM.

For the compound `C[C@@H]1CN(c2ccc(C#N)c3ncccc23)C[C@@H]2c3ccc(N4CCNC[C@@](C)(O)C4)cc3CN12` [Example 55B, 5-[(4R,10bS)-8-[(6R)-6-hydroxy-6-methyl-1,4-diazepan-1-yl]-4-methyl-3,4,6,10b-tetrahydro-1H-pyrazino[2,1-a]isoindol-2-yl]quinoline-8-carbonitrile], the IC50 was < 3.2 nM. The figure for `C[C@@H]1CN(c2ccc(C#N)c3ncccc23)C[C@@H]2c3ccc(N4CCNC[C@](C)(O)C4)cc3CN12` [Example 55A, 5-[(4R,10bS)-8-[(6S)-6-hydroxy-6-methyl-1,4-diazepan-1-yl]-4-methyl-3,4,6,10b-tetrahydro-1H-pyrazino[2,1-a]isoindol-2-yl]quinoline-8-carbonitrile] is < 3.2 nM; for `C[C@@H]1CN(c2ccc(C#N)c3ncccc23)C[C@@H]2c3ccc(N4C[C@@H](N)[C@](C)(O)C4)cc3CN12` [Example 45, 5-[(4R,10bS)-4-methyl-8-[trans-(3R,4R)-4-amino-3-hydroxy-3-methyl-pyrrolidin-1-yl]-3,4,6,10b-tetrahydro-1H-pyrazino[2,1-a]isoindol-2-yl]quinoline-8-carbonitrile] it is < 3.2 nM; for `C[C@@H]1CN(c2ccc(C#N)c3ncccc23)C[C@@H]2c3ccc(N4CCC(C)(N)CC4)cc3CN12` [Example 51, 5-[(4R,10bS)-8-(4-amino-4-methyl-1-piperidyl)-4-methyl-3,4,6,10b-tetrahydro-1H-pyrazino[2,1-a]isoindol-2-yl]quinoline-8-carbonitrile] it is < 0.3 nM. As for `C[C@@H]1CN(c2ccc(C#N)n3nccc23)C[C@@H]2c3ccc(N[C@H]4CNC[C@H]4F)cc3CN12` [Example 98, 4-[(4R,10bS)-8-[[(3S,4R)-4-fluoropyrrolidin-3-yl]amino]-4-methyl-3,4,6,10b-tetrahydro-1H-pyrazino[2,1-a]isoindol-2-yl]pyrazolo[1,5-a]pyridine-7-carbonitrile], the IC50 was found to be 8.8 nM. The figure for `C[C@@H]1CN(c2ccc(C#N)n3nccc23)C[C@@H]2c3ccc(N4CC[C@@](C)(N)C4)cc3CN12` [Example 103, 4-[(4R,10bS)-8-[(3R)-3-amino-3-methyl-pyrrolidin-1-yl]-4-methyl-3,4,6,10b-tetrahydro-1H-pyrazino[2,1-a]isoindol-2-yl]pyrazolo[1,5-a]pyridine-7-carbonitrile] is 4.8 nM; for `C[C@@H]1CN(c2ccc(C#N)c3ncccc23)C[C@@H]2c3ccc(N4CCNC[C@H]4CO)cc3CN12` [Example 11, 5-[(4R,10S)-8-[(2S)-2-(hydroxymethyl)piperazin-1-yl]-4-methyl-3,4,6,10b-tetrahydro-1H-pyrazino[2,1-a]isoindol-2-yl]quinoline-8-carbonitrile] it is < 3.2 nM.

Regarding `C[C@@H]1CN(c2ccc(C#N)n3nccc23)C[C@@H]2c3ccc(N4CC[C@@H](N)C4)cc3CN12` [Example 96, 4-[(4R,10bS)-8-[(3R)-3-aminopyrrolidin-1-yl]-4-methyl-3,4,6,10b-tetrahydro-1H-pyrazino[2,1-a]isoindol-2-yl]pyrazolo[1,5-a]pyridine-7-carbonitrile], the IC50 turned out to be 4 nM.
